Values quoted from earlier work, collected in patent US9987593B2, “Method for producing NOx storage-reduction catalyst” (TOYOTA JIDOSHA KABUSHIKI KAISHA, priority 2016, dated 2018).

Row | Structure (SMILES) | solubility in water (in words) | solubility in water [mg/100 ml H2O]
1 | O=C(O)c1nc(=O)[nH]c(=O)[nH]1 [oteracil potassium, reference compound] | substantially insoluble in water | 
2 | [K+].c1ccc([B-](c2ccccc2)(c2ccccc2)c2ccccc2)cc1 [potassium tetraphenylborate] | substantially insoluble in water | 0.18
